Reference: patent US12595269B2, “Morpholine-like monoamine releasers” (Solvonis Therapeutics Ireland Holdings Limited, priority 2022, dated 2026)
Where two headings read alike, the source gives them in different places.

Test: Pharmacokinetic and brain penetration study, intravenous and oral administration in rats
Type: in vivo
Settings: rat; for concentration at 8 h: read-out: Clast; for Vd: read-out: Vss
Experimental: Methods and Procedure: The study was conducted in agreement with procedures to assure data integrity and GLP principles. Three experimental groups, as outlined below, were included in the study:
Group 1: Exemplary compound 522A was administered via the IV route to three rats at a target dose level of 0.5 mg/kg. Blood and brain samples were collected at 2h after IV administration.
Group 2: Exemplary compound 522A was administered via the IV route to three rats (brain penetration group) at a target dose level of 0.5 mg/kg. Blood and brain samples were collected at 2h after IV administration.
Group 3: Exemplary compound 522A was orally administered to three rats at a target dose level of 1 mg/kg. Blood samples were collected up to 24h after oral administration.
All test formulations were prepared on the day of administration prior to dosing, stored at room temperature, and used as soon as possible. Formulations were prepared and administered by volume for both IV and oral dosing. Actual body weights were determined on the day of dose administration, and the dose volumes were adjusted to the weight of the animal at the time of dose administration.
Blood was collected into K3 EDTA tubes at each of the following time points post-administration: • Group 1 (ITS): 0.083, 0.33, 1, 2, 4, 6, 8, and 24 hours after dosing • Group 2 (ITS): 2 hours after dosing for terminal brain analysis • Group 3 (Oral): 0.250, 0.5, 1, 2, 4, 6, 8, and 24 hours after dosing
All blood samples were thoroughly but gently mixed following collection and then placed on wet ice. Within 0.5 h of collection, blood was centrifuged (3000 g for 10 minutes at approximately 4° C.). Within 0.5 hours, 20 μL of each plasma sample was transferred into micronic tubes containing 80 μL of 0.1N Hepes buffer (pH 7.0-7.5). Residual plasma was transferred in micronic tubes as a second aliquot.
Brain specimens were diluted with 4 volumes of 0. IN Hepes buffer and homogenized using the Precellys system. Blood and brain samples were assayed using an optimized method based on protein precipitation with acetonitrile followed by HPLC/MS-MS analysis. Given the unknown stability of analytes in blood and brain, Calibration standards (CS) and Quality control samples (QC) were prepared in blood and brain samples on the day of dosing and stored together with study samples. It is assumed this procedure accounted for any possible analyte degradation.
Study samples, CS, QC, and blanks were spiked with an internal standard (IS), to improve the precision of the assay. Study samples were analyzed together with CS, QC and blank samples (including double blanks). From the calibration curve, the linear range of the analytical method was determined and the lower/upper limits of quantitation were specified.
The results of blood and brain specimens were subjected to non-compartmental pharmacokinetic analysis using Phoenix WinNonlin 6.3, with the following parameters reported: Calculated concentration of test items in the corresponding formulation (expressed as mg/mL), dose levels (expressed as mg/kg) for each compound, actual collection times (expressed as hh: mM), blood concentrations (expressed as ng/ml) for each compound, brain concentrations (expressed as ng/g) for each compound, PK parameters (iv: Cmax, AUC, CLp, Vss, t1/2, if applicable; oral (po): Cmax, tmax, AUC, F %, Fa %, Eh, AUC BB ratio, if applicable) for each compound, and abnormal clinical signs and relevant findings, if any.

[1] = plasma, iv, 0.5 mg/kg, 0.5 mg/kg (Table 8)
[2] = plasma, iv, 0.5 mg/kg, 0.5 mg/kg (Table 9)
[3] = plasma, iv, 0.5 mg/kg, IV, 0.5 mg/kg (Table 8)
[4] = plasma, iv, 0.5 mg/kg, IV, 0.5 mg/kg (Table 9)

With Clc1ccc(C23CNC(CO2)C3)cc1Cl (stereo not shown) [522A, 1-(3,4-dichlorophenyl)-2-oxa-5-azabicyclo[2.2.1]heptane] the Kp uu at 2 h (brain and blood, 0.5 mg/kg, two hours after IV administration, read-out: concentration ratio of unbound drug in brain to blood (kp, uu)) was 0.77, the Kp at 2 h (brain and plasma, 0.5 mg/kg, two hours after IV administration, read-out: mean brain-to-plasma ratio) was 4.96 and the Tmax (plasma, IV, 0.5 mg/kg (Table 8)) was 0.08 h. It also gave a Tmax (plasma, oral (PO), 1 mg/kg) of 2 h, a bioavailability (plasma, oral (PO), 1 mg/kg versus IV) of 30.8% and a Tlast (IV, 0.5 mg/kg (Table 8)) of 8 h. The Tlast (IV, 0.5 mg/kg (Table 9)) was 8 h, the concentration at 2 h (brain, iv, 0.5 mg/kg, two hours after IV administration, 0.5 mg/kg, read-out: free concentration in the brain) was 42.8 nM and the concentration at 2 h (brain, iv, 0.5 mg/kg, two hours after IV administration, 0.5 mg/kg, read-out: total concentration in the brain) was 1930 nM. The Tlast (oral (PO), 1 mg/kg) was 8 h, the AUC(0-inf) [1] was 1480 ng·h/mL and the AUC(0-t) [1] was 1460 ng·h/mL. For the same compound, the Cmax [1] was 1890 ng/mL, the clearance [1] was 5.71 mL/min/kg and the half-life [1] was 1.36 h. For the same compound, the AUC(0-inf) [2] was 799 ng·h/mL, the AUC(0-t) [2] was 772 ng·h/mL and the Cmax [2] was 878 ng/mL. It also gave a clearance [2] of 11.6 mL/min/kg, a half-life [2] of 1.65 h and a concentration at 8 h [3] of 9.32 ng/mL. It also gave a Vd [3] of 0.411 L/kg, a concentration at 8 h [4] of 10.6 ng/mL and a Vd [4] of 1.48 L/kg. It also gave a concentration at 2 h (plasma, iv, 0.5 mg/kg, two hours after IV administration, 0.5 mg/kg, read-out: free concentration in plasma) of 71.3 nM, a concentration at 2 h (plasma, iv, 0.5 mg/kg, two hours after IV administration, 0.5 mg/kg, read-out: total plasma concentration) of 594 nM and an AUC(0-inf) (plasma, po, 1 mg/kg, oral (PO)) of 509 ng·h/mL. For the same compound, the AUC(0-t) (plasma, po, 1 mg/kg, oral (PO)) was 442 ng·h/mL, the Cmax (plasma, po, 1 mg/kg, oral (PO)) was 102 ng/mL and the half-life (plasma, po, 1 mg/kg, oral (PO)) was 2.42 h. For the same compound, the concentration at 8 h (plasma, po, 1 mg/kg, oral (PO), 1 mg/kg) was 19.3 ng/mL.
